Test results reported in US10517889B2, “Modulators of SMAD7 expression” (Ionis Pharmaceuticals, Inc., priority 2017, dated 2019).
Strand notation (5' to 3'): a small letter for the sugar, then the base; units joined by * are phosphorothioate-linked, units joined directly phosphodiester-linked; [ ] holds rarer units or linkages, { } end groups; capitals alone tell only the bases. k = constrained ethyl (cEt); [5mC] = 5-methylcytosine; d = 2'-deoxy (DNA)

test system: human SMAD7 mRNA; assay: Antisense inhibition of human SMAD7 mRNA expression in Hep3B cells by 3-10-3 cEt gapmers, 10,000 nM, electroporation (Example 2); assay type: cell-based; conditions: Hep3B cells, 10,000 nM antisense oligonucleotide, electroporation, approximately 24 hours, RT-PCR primer probe set RTS5062, relative to untreated control cells
Outline: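 Hep3B, 20,000 cells/well; electroporation, 10,000 nM ASO; ~24 h. Readout: SMAD7 mRNA by qRT-PCR (RTS5062), RIBOGREEN-normalised; % inhibition vs untreated.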

Substance | % Inhibition [%]
799900 (antisense k[5mC]*kA*kA*dG*dT*d[5mC]*dT*d[5mC]*dT*dT*dA*d[5mC]*d[5mC]*kT*k[5mC]*kA) [compound 799900] | 51
799979 (kA*kA*k[5mC]*dG*dG*dT*dT*dG*d[5mC]*d[5mC]*dT*d[5mC]*dA*kT*k[5mC]*k[5mC]; antisense) [compound 799979] | 38
799892 (antisense kG*k[5mC]*kA*dT*d[5mC]*dA*dT*dT*dA*dA*dG*d[5mC]*d[5mC]*kA*kA*kT) [compound 799892] | 54
798930 (antisense kG*kA*kA*dA*dA*dT*dA*dT*dT*dA*dG*d[5mC]*dA*kG*k[5mC]*kA) [compound 798930] | 62

same assay, conditions: Hep3B cells, electroporation with 10,000 nM antisense oligonucleotide, approximately 24 hours, RTS5062, percent inhibition of SMAD7 mRNA relative to untreated control cells

Substance | % Inhibition [%]
799790 (kG*kA*kG*dA*d[5mC]*d[5mC]*dT*dA*d[5mC]*d[5mC]*dT*d[5mC]*dT*kG*kT*kT; antisense) [compound 799790] | 33
799844 (antisense kA*kG*kA*dG*dG*dA*dG*dG*dA*dG*dG*d[5mC]*dA*kA*kA*kT) [compound 799844] | 11
799846 (kT*k[5mC]*k[5mC]*dA*d[5mC]*dT*dA*dT*dT*d[5mC]*dT*dA*dT*kG*kA*kA; antisense) [compound 799846] | 25

same assay, conditions: Hep3B cells, electroporation with 10,000 nM antisense oligonucleotide, approximately 24 hours, SMAD7 mRNA by RT-PCR (RTS5062), relative to untreated control cells

Substance | % Inhibition [%]
799470 (antisense kA*kA*kA*dA*dG*d[5mC]*dT*d[5mC]*d[5mC]*dG*d[5mC]*dA*dT*kA*kG*kA) [compound 799470] | 10
798882 (kA*kG*k[5mC]*d[5mC]*d[5mC]*dG*dT*d[5mC]*d[5mC]*dA*d[5mC]*dG*dG*k[5mC]*kT*kG; antisense) [compound 798882] | 0
799863 (kG*kG*k[5mC]*dT*d[5mC]*d[5mC]*d[5mC]*d[5mC]*d[5mC]*dA*d[5mC]*d[5mC]*dG*k[5mC]*kA*kT; antisense) [compound 799863] | 16
830041 (antisense kT*k[5mC]*kA*d[5mC]*dT*dT*d[5mC]*d[5mC]*dT*dA*dT*dT*dG*kG*k[5mC]*kT) [compound 830041] | 56
799253 (antisense k[5mC]*kT*k[5mC]*d[5mC]*dA*dA*dA*dG*dG*dT*dG*d[5mC]*dG*k[5mC]*kG*kG) [compound 799253] | 0
799376 (antisense kG*k[5mC]*kA*dG*dG*dA*dG*dG*dA*dA*d[5mC]*d[5mC]*dT*kA*k[5mC]*k[5mC]) [compound 799376] | 45
830029 (antisense kT*k[5mC]*kA*d[5mC]*dT*d[5mC]*d[5mC]*dA*d[5mC]*dT*d[5mC]*dA*d[5mC]*k[5mC]*kG*kA) [compound 830029] | 56
798722 (antisense k[5mC]*kT*kT*dG*d[5mC]*d[5mC]*d[5mC]*dA*dG*dG*d[5mC]*dA*dG*k[5mC]*kA*kT) [compound 798722] | 0
799260 (antisense kT*kT*kG*d[5mC]*d[5mC]*d[5mC]*d[5mC]*dA*dA*dA*dA*d[5mC]*dT*k[5mC]*k[5mC]*kA) [compound 799260] | 27
799945 (antisense kA*kG*k[5mC]*dT*dT*dT*dT*dA*dG*dA*dG*d[5mC]*dT*kG*k[5mC]*kG) [compound 799945] | 5
799987 (k[5mC]*kA*kA*dA*d[5mC]*dA*dT*d[5mC]*dA*d[5mC]*d[5mC]*dA*d[5mC]*kG*k[5mC]*k[5mC]; antisense) [compound 799987] | 57
772889 (k[5mC]*kT*k[5mC]*d[5mC]*dA*dT*dT*d[5mC]*dA*dT*dA*dA*dT*kA*kT*kT; antisense) [compound 772889] | 7
830065 (kA*kA*kT*dG*dG*dT*dG*d[5mC]*dT*d[5mC]*dT*dG*d[5mC]*k[5mC]*k[5mC]*kT; antisense) [compound 830065] | 43
799355 (kA*kG*kG*dA*dA*dA*d[5mC]*d[5mC]*dT*dA*dG*dA*dA*k[5mC]*k[5mC]*kA; antisense) [compound 799355] | 23
799446 (antisense kG*kA*k[5mC]*d[5mC]*dT*dA*dA*dT*d[5mC]*dT*d[5mC]*dT*dT*kT*k[5mC]*kA) [compound 799446] | 48
799368 (antisense k[5mC]*kT*kA*dA*dG*dT*d[5mC]*dT*d[5mC]*d[5mC]*dG*dA*dG*kT*kT*kA) [compound 799368] | 68
790485 (k[5mC]*kA*k[5mC]*d[5mC]*dT*dG*dA*dA*d[5mC]*dA*d[5mC]*dT*dT*kT*kG*k[5mC]; antisense) [compound 790485] | 26

same assay, conditions: Hep3B cells, electroporation with 10,000 nM antisense oligonucleotide, approximately 24 hours, primer probe set RTS5062, relative to untreated control cells

Substance | % inhibition of SMAD7 mRNA expression [%] | % Inhibition [%]
798780 (kA*kA*kG*dA*dT*dT*d[5mC]*dA*d[5mC]*dA*dG*d[5mC]*dA*kA*k[5mC]*kA; antisense) [compound 798780] | 58 | –
772696 (kT*k[5mC]*kT*d[5mC]*dT*d[5mC]*dA*dA*dA*dG*d[5mC]*dA*d[5mC]*kT*kA*k[5mC]; antisense) [compound 772696] | 56 | –
798976 (antisense kT*kG*kG*dA*dT*dT*dT*d[5mC]*dT*dG*d[5mC]*dT*dT*k[5mC]*k[5mC]*k[5mC]) [compound 798976] | – | 19
799146 (antisense kT*kA*k[5mC]*d[5mC]*dT*dT*dG*dG*dG*dT*dT*dA*dT*kG*kA*k[5mC]) [compound 799146] | 0 | –
798971 (antisense kG*kG*kT*dG*dT*d[5mC]*d[5mC]*dT*dG*d[5mC]*d[5mC]*dG*dA*kT*k[5mC]*kA) [compound 798971] | 53 | –
799251 (antisense kA*kG*kG*dT*dG*d[5mC]*dG*d[5mC]*dG*dG*d[5mC]*d[5mC]*dA*k[5mC]*kG*kA) [compound 799251] | 37 | –
799008 (k[5mC]*k[5mC]*kA*dT*d[5mC]*dT*dG*d[5mC]*d[5mC]*dG*d[5mC]*dT*d[5mC]*k[5mC]*kT*kG; antisense) [compound 799008] | 60 | –

same assay, conditions: Hep3B cells, electroporation, 10,000 nM antisense oligonucleotide, approximately 24 hours, RTS5062, relative to untreated control cells

Substance | % inhibition of SMAD7 mRNA expression [%]
799304 (antisense kG*kA*kA*dA*dG*dA*d[5mC]*dA*dA*dA*d[5mC]*d[5mC]*dA*k[5mC]*kA*k[5mC]) [compound 799304] | 54
799641 (k[5mC]*kA*kT*d[5mC]*dA*dG*dA*d[5mC]*d[5mC]*dT*d[5mC]*dT*d[5mC]*k[5mC]*k[5mC]*kA; antisense) [compound 799641] | 33
799799 (kA*kA*kA*dA*d[5mC]*dA*dT*d[5mC]*d[5mC]*d[5mC]*dA*d[5mC]*dT*kT*k[5mC]*kT; antisense) [compound 799799] | 28

same assay, conditions: SMAD7 mRNA, Hep3B cells, 10,000 nM antisense oligonucleotide, electroporation, approximately 24 hours, primer probe set RTS5062, relative to untreated control cells

Substance | % Inhibition [%]
790491 (kG*kT*kA*dA*dG*dA*dT*dT*d[5mC]*dA*d[5mC]*dA*dG*k[5mC]*kA*kA; antisense) [compound 790491] | 56
829782 (antisense kA*kT*k[5mC]*d[5mC]*dG*dG*d[5mC]*d[5mC]*dA*d[5mC]*d[5mC]*dT*dG*kA*kA*k[5mC]) [compound 829782] | 36
772591 (kA*kG*kT*dG*dT*dG*dA*d[5mC]*d[5mC]*dG*dA*dT*d[5mC]*k[5mC]*k[5mC]*k[5mC]; antisense) [compound 772591] | 60

same assay, conditions: SMAD7 mRNA, Hep3B cells, electroporation with 10,000 nM antisense oligonucleotide, approximately 24 hours, primer probe set RTS5062, relative to untreated control cells

Substance | % Inhibition [%]
829866 (antisense kG*kT*kG*dG*d[5mC]*dG*dG*dA*d[5mC]*dT*dT*dG*dA*kT*kG*kA) [compound 829866] | 10
